Results on one compound are retold here after PMC3920258, “Experimental Basis for the High Oral Toxicity of Dinophysistoxin 1: A Comparative Study of DSP” (Toxins, 2014).

Like-named read-outs stand apart in the source and are kept apart here.

For one data set, the system named is occludin in Caco-2 cells. The experiment in a line: Confocal microscopy imaging of occludin. The format is cell-based, human. To be noted: 100 nM toxin, 24 h. How it is done:
Tight-junction strands are composed of membrane integral proteins, occludin being the best-studied member. We evaluate the integrity of such tight-junctions in Caco-2 cells treated with 100 nM OA, DTX1 and DTX2 for 24 h by labeling occludin. […] (Figure 5C).
Alexa Fluor® 488-labeled anti-occludin mouse monoclonal antibody from Invitrogen (Camarillo, CA, USA) was used for visualizing occludin, as previously described.
Briefly, differentiated Caco-2 monolayers were treated with OA, DTX1, DTX2, vehicle and positive controls of apoptosis and cellular death: staurosporine (STP), sodium butyrate (NaBT) and Triton-X 100. Immediately after treatments, the cells were fixed and incubated with the anti-occludin antibody. Each experimental condition was performed in duplicate. Confocal imaging was then carried out with a 40× oil immersion objective of a Nikon Eclipse TE2000-E inverted microscope attached to the C1 laser confocal system and EZ-C1 V.2.20 software (Nikon Instruments Europe B.V., Amstelveen, Netherlands). An Argon laser was used to excite the Alexa Fluor 488 conjugated antibody.

Data set [1] relates to mice. To be noted: cited from earlier work.
A further data set concerns PP2A. To be noted: cited from earlier work; for inhibition equivalency factor (IEF): PP2A.
Data set [2] relates to mice. To be noted: cited from earlier work. The source holds these as a separate data set.
For data set [3], the system named is differentiated Caco-2 monolayers. The experiment in a line: Trans-epithelial electrical resistance (TEER) measurement. It is filed as cell-based, human. How it is done:
We assessed tight junction formation stability through measurements of trans-epithelial electrical resistance (TEER). […] We studied the changes that OA, DTX1 and DTX2 induced in the TEER of the Caco-2 monolayer as a function of time. Differentiated Caco-2 monolayers were incubated with 10, 50 and 100 nM OA, DTX1 and DTX2. TEER was measured immediately before the toxins addition and after 3, 6, 12 and 24 h of incubation with them.
Trans epithelial electric resistance (TEER) was measured across differentiated Caco-2 monolayers, as previously described. The measurements were performed before the treatment with OA, DTX1 and DTX2 (controls), and after each of the incubation times established: 3, 6, 12 and 24 h. Only inserts with TEER higher than 300 Ωcm^2 before the addition of the toxin were used for further testing.

In data set [4] the test system is differentiated Caco-2 cells. The experiment in a line: AlamarBlue metabolic activity (viability) assay. The format is cell-based, human. To be noted: 1-1000 nM toxin, 6-72 h; highest 1000 nM for 72 h. The method, then:
Metabolic activity assay: Cytotoxic effects of OA, DTX1 and DTX2 (1, 10, 20, 40, 100, 200, 500 and 1000 nM) in differentiated Caco-2 cells have been evaluated in a time-dependent manner by the AlamarBlue metabolic activity assay. Incubation with 0.01% Triton X-100 has been used as a positive control of death. Data are shown in Figure 2 as the percent of fluorescence vs. control.
The viability of the Caco-2 cells was measured by Alamar Blue assay, as previously described. Briefly, the Caco-2 cells were seeded onto 96-well plates at an initial concentration of 25,000 cells/mL and cultured until differentiation (21 days) with medium renewal every 2–3 days. Subsequently, cells were treated with increasing concentrations of OA, DTX1, DTX2 and Triton X-100 in the presence of AlamarBlue; then, fluorescence was measured at 6, 8, 10, 12, 24, 48 and 72 hours of incubation using a FL600 Microplate Fluorescence Reader from BioTek (Winooski, VT, USA) at an excitation wavelength of 530 nm and an emission wavelength of 590 nm. Control cells were considered as having 100% viability, and the results are expressed as the percentage of the fluorescence of treated cells versus the fluorescence of control ones.
On the technique in general: Resazurin is reduced to fluorescent resorufin, in cell work by metabolically active cells.

Data set [5] deals with differentiated Caco-2 monolayers. The experiment in a line: Caco-2 permeability assay with microsphere-based immunoassay quantification. The format is in vitro ADME, human. How it is done: With the aim of evaluating the transport of OA, DTX1 and DTX2 through the cell monolayer, we performed the permeability assays as described in Section 4.7. Caco-2 cell monolayers were incubated with OA, DTX1 and DTX2 for 3, 6, 12 and 24 h. […] According to the results, almost all the OA and DTX2 remain in the apical side (Figure 6 A,D and C,F). […] Likewise, in the absence of a cell monolayer (shown as no cells in Figure 6), all the toxins easily flow over inserts.
The permeability assay was carried out as previously described. During the assays, cell monolayer integrity was evaluated by measuring TEER at the start and end of the experiment. Once the incubation with the toxins (OA, DTX1 and DTX2) finished (after 3, 6, 12 or 24 h), the medium was collected from both the insert (donor compartment/apical side of the monolayer) and the well (receiver compartment/basolateral side of the monolayer) for toxin quantification purposes. Previously, we confirmed that the toxins easily flow over the naked inserts.
OA, DTX1 and DTX2 samples taken from the inserts/donor compartments and wells/receptor compartments where quantified, as previously described by Fraga et al.. In order to consider the cross-reactivity of the analyzed derivatives of the okadaic acid, DTX-1 and DTX-2, calibration curves were prepared using calibration solutions with CRMs of DTX-1 and DTX-2. Therefore, the quantification of DTX-1 and DTX-2 samples collected from permeability assays were quantified against their respective calibration curves.

The test system is the same in data set [6]. The experiment in a line: Annexin V-FITC apoptosis detection, confocal imaging. It is filed as cell-based, human. To be noted: 100 nM toxin, 24 h. The text has this:
Cell membrane integrity assay: Some fluorescent methods allow a non-destructive evaluation of apoptosis by detecting changes in the structure of cell membranes. Annexin V has a high affinity for phosphatidylserine (PS), a phospholipid component located on the inner surface of the lipid bilayer of the cellular plasma membrane. During early apoptosis processes, this PS migrates to the outer portion, becomes exposed on the surface of the cell and can be detected by binding to annexin V labeled with a fluorescent dye. The annexin V assay was carried out in differentiated Caco-2 monolayers that were treated for 24 h with 100 nM of OA, DTX1, DTX2 or vehicle. Incubation with 0.005% Triton X-100 was used as a positive control of cell death and 1 μM staurosporine (STP) and 100 mM sodium butyrate (NaBT) as inductors of cell apoptosis.
To visualize apoptosis by confocal microscopy in the toxin-treated Caco-2 monolayers, an apoptosis detection kit containing annexin V conjugated with FITC from Immunostep (Salamanca, Spain) was used.
Caco-2 cells were seeded on glass coverslips at an initial concentration of 65 × 10^3 cells/mL and cultured for 21 days until differentiation with medium renewal each 2–3 days. On the 21st day, the cell medium was removed, and the monolayers were treated for 24 h with toxins: OA, DTX1, DTX2, vehicle and positive controls of apoptosis and cellular death (staurosporine (STP), sodium butyrate (NaBT) and Triton-X 100). Immediately after the 24 h of incubation, the medium was removed, and the cells were rinsed 3 times with PBS just before the addition of annexin V-FITC in a proportion of 1:100 diluted in the provided binding buffer. After 15 min of incubation in the dark at room temperature, the cells were rinsed again 3 times with PBS and fixed using paraformaldehyde 2% for 15 min at 4 °C. Finally, another 3 washes with PBS were required prior to mounting the coverslips over microscope glass slides with 10 μL of PBS/Glycerol (1:1) and sealing the edges with nail varnish. Confocal imaging was then carried out with a 40× oil immersion objective of a Nikon Eclipse TE2000-E inverted microscope attached to the C1 laser confocal system and EZ-C1 V.2.20 software (Nikon Instruments Europe B.V., Amstelveen, Netherlands). An argon laser was used to excite the annexin V-FITC conjugated protein (λ excitation = […], λ emission = […]).

The test system of another data set is PP1. To be noted: cited from earlier work.

For `C=C1[C@@H](O)[C@@H]2O[C@]3(CC[C@H](/C=C/[C@@H](C)[C@@H]4CC(C)=C[C@@]5(O[C@H](C[C@@](C)(O)C(=O)O)CC[C@H]5O)O4)O3)CC[C@H]2O[C@@H]1[C@@H](O)C[C@H](C)[C@H]1O[C@@]2(CC[C@H]1C)OCCC[C@H]2C` [DTX1, dinophysistoxin-1], the “occludin distribution / location” value in the data set with occludin in Caco-2 cells is “fragmented and less uniform staining of occludin”. Also, the “toxicity equivalent factor (TEF)” value in the data set on mice [1] (EFSA, based on mice i.p. toxicity, reference OA) is 1. Besides, in the data set on mice [1] (mice, i.p.), the minimum lethal dose is 0.16 mg/kg. Moreover, the entries for the “inhibition equivalency factor (IEF)” value in the data set on PP2A (higher IC50 than OA) and in the data set with PP2A (lower IC50 than OA) were 0.6–0.9 and 1.6–2.4, respectively. The “dissociation constant, fold lower compared to OA” value in the data set with PP2A (catalytic subunit PP2A) was 1.6 fold. For the same compound, the “oral toxicity compared with i.p. injection” value in the data set with mice [2] is on record as “only slightly less toxic when administered orally than when given by i.p. injection”. Also, the lethal oral dose with mice [2] (mice, oral, ref 58) is 300 μg/kg b.w. Besides, the “change in TEER value” is listed as “significantly decreased” in data set [3] (50 nM, 24 h); “decrease was much more noticeable” in data set [3] (100 nM, 12 and 24 h). The “TEER values lowered to” value in [3] (100 nM, 12 h) is 50%; in data set [3] (100 nM, 24 h), 70%. In [3] (as stated in abstract), the “concentration disrupting the integrity of Caco-2 monolayers” value is on record as “above 50 nM”. Besides, the “concentration disrupting the monolayer integrity” value in data set [3] (for 12 h and above) is on record as above 100 nM. The “fluorescence intensity (percent of viability vs. control)” value in data set [4] is given as “did not show any decrease in fluorescence intensity”. Besides, the “amount of toxin in the basolateral side” value in data set [5] (100 nM, 24 h) is recorded as “increase in the amount of toxin in the basolateral side”. Further, in [5] (100 nM, 24 h), the “initial amount recovered from the basolateral side” value is given as around 50%. Also, the “concentration at which toxin significantly crosses the intestinal epithelium” value in data set [5] (as stated in abstract) is listed as “above 100 nM”. Besides, the “annexin V-FITC fluorescence (apoptosis)” value in [6] is “Lack of fluorescence”. Further, the “inhibition equivalency factor (IEF), IC50 OA / IC50 analogue” value with PP1 is recorded as 0.4–0.9.
